The record followed here is patent US10759783B2, “Biaryl inhibitors of Bruton'S tyrosine kinase” (BIOGEN MA INC., priority 2013, dated 2020).

Assay [1] addresses T1, BTK enzyme (Homo sapiens, UniProt Q06187).
T1 construct: purchased Upstate 14-552
Description: In vitro BTK kinase assay: BTK-POLYGAT-LS assay. It counts as biochemical. As to conditions: ATP 10 μM, read-out: IC50 (10uMATP). Summed up: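 Human BTK activity was measured with final 10 μM ATP and 100 nM polyGAT substrate in pH 7.5 Tris buffer with 10 mM MgCl2, DTT, Triton X-100 and casein.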

The target in assay [2] is BTK (phospho-BTK) in human whole blood (Homo sapiens, UniProt Q06187). Kind of assay: In vitro PD assay in human whole blood (pBTK assay).
Sequence of BTK (phospho-BTK) in human whole blood (Q06187 whole entry): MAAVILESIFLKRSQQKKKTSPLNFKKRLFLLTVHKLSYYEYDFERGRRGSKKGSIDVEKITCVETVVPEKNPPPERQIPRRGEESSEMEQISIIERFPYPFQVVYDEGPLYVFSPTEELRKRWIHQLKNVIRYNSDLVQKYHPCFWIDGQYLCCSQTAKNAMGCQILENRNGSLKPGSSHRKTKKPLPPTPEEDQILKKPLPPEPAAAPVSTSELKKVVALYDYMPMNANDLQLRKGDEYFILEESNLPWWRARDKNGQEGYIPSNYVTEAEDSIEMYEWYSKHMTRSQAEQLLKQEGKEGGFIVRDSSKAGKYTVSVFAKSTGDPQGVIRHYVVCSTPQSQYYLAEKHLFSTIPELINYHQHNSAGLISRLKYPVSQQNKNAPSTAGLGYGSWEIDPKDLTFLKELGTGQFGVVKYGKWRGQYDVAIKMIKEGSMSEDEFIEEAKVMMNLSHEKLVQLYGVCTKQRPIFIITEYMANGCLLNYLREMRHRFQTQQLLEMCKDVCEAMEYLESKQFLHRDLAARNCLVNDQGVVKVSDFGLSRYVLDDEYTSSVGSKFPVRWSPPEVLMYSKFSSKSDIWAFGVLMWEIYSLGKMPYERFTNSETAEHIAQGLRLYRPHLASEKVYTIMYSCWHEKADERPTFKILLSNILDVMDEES

pIC50: −log10 of the molar value.

T1 sequence (Q06187 whole entry): as above

What is called pIC50 is −log10 of the IC50, conventionally taken in molar units. Regarding `Cc1cc(-c2ccnc(Nc3cn[nH]c3)n2)ccc1CNC(=O)c1cnc(C(C)(C)C)s1` [Example I-36, N-(4-(2-((1H-pyrazol-4-yl)amino)pyrimidin-4-yl)-2-methylbenzyl)-2-(tert-butyl)thiazole-5-carboxamide], the pIC50 in assay [1] is more than 8.00; in assay [2], more than 6.30.
As to `CN1CCC(n2cc(Nc3nccc(-c4ccc(CNC(=O)N5CCC(C(C)(C)C)C5)c(C(F)(F)F)c4)n3)cn2)CC1` (stereo not drawn) [Example I-298, 3-tert-butyl-N-[[4-[2-[[1-(1-methyl-4-piperidyl)pyrazol-4-yl]amino]pyrimidin-4-yl]-2-(trifluoromethyl)phenyl]methyl]pyrrolidine-1-carboxamide], the pIC50 in assay [1] was more than 8.00; in assay [2], more than 6.30.
For `Cc1cc(-c2ccnc(Nc3cnn(C4CCC(C(=O)O)CC4)c3)n2)ccc1CNC(=O)c1cnn(C(C)(C)C)c1` (stereo in doubt) [Example I-195, cis-4-(4-((4-(4-((1-(tert-butyl)-1H-pyrazole-4-carboxamido)methyl)-3-methylphenyl)pyrimidin-2-yl)amino)-1H-pyrazol-1-yl)cyclohexanecarboxylic acid] the same measures were more than 8.00 and more than 6.30.
The like results for `Cc1cc(-c2ccnc(Nc3cnn(C4CNC4)c3)n2)ccc1CNC(=O)c1cnc(C(C)(C)C)s1` [Example I-42, N-(4-(2-((1-(azetidin-3-yl)-1H-pyrazol-4-yl)amino)pyrimidin-4-yl)-2-methylbenzyl)-2-(tert-butyl)thiazole-5-carboxamide] were, in that order, more than 8.00 and more than 6.30.
On to `CN1CCC(n2cc(Nc3nccc(-c4ccc(CNC(=O)N5CC(OC(C)(C)C)C5)c(C(F)(F)F)c4)n3)cn2)CC1` [Example I-200, 3-(tert-butoxy)-N-(4-(2-((1-(1-methylpiperidin-4-yl)-1H-pyrazol-4-yl)amino)pyrimidin-4-yl)-2-(trifluoromethyl)benzyl)azetidine-1-carboxamide], for which the pIC50 in assay [1] is more than 8.00; in assay [2] it was more than 6.30.
`Cc1cc(-c2ccnc(Nc3cnn(C)c3)n2)ccc1CNC(=O)c1cc2c(s1)CCNC2` [Example I-2, N-(2-methyl-4-(2-((1-methyl-1H-pyrazol-4-yl)amino)pyrimidin-4-yl)benzyl)-4,5,6,7-tetrahydrothieno[3,2-c]pyridine-2-carboxamide]: the values for the pIC50 in assay [1] and in assay [2] were more than 8.00 and 5.82 to 6.30, respectively.
As for `Cc1cc(-c2cc(Nc3cn(C)cn3)ncn2)ccc1CNC(=O)c1cnc(C(C)(C)C)s1` [Example I-65, 2-(tert-butyl)-N-(2-methyl-4-(6-((1-methyl-1H-imidazol-4-yl)amino)pyrimidin-4-yl)benzyl)thiazole-5-carboxamide], the pIC50 in assay [1] was more than 8.00; in assay [2] it was 5.82 to 6.30.
Take `Cc1cc(-c2cc(Nc3ccc(N4CCN(C)CC4)cn3)ncn2)ccc1CNC(=O)c1ccn(C(C)(C)C)n1` [Example I-226, 1-(tert-butyl)-N-(2-methyl-4-(6-((5-(4-methylpiperazin-1-yl)pyridin-2-yl)amino)pyrimidin-4-yl)benzyl)-1H-pyrazole-3-carboxamide]: the pIC50 was more than 8.00 in assay [1] and more than 6.30 in assay [2].
For `CC(C)CN1CCN(Cc2ccc(-c3ccnc(Nc4cnn(CCO)c4)n3)cc2C(F)(F)F)C(=O)C1` [Example I-310, 1-[[4-[2-[[1-(2-hydroxyethyl)pyrazol-4-yl]amino]pyrimidin-4-yl]-2-(trifluoromethyl)phenyl]methyl]-4-isobutyl-piperazin-2-one] the same measures were more than 8.00 and more than 6.30.
Regarding `Cc1cc(-c2ccnc(Nc3cnn(C)c3)n2)ccc1CNC(=O)c1ccn(C(C)(C)C)n1` [Example I-252, 1-tert-butyl-N-[[2-methyl-4-[2-[(1-methylpyrazol-4-yl)amino]pyrimidin-4-yl]phenyl]methyl]pyrazole-3-carboxamide], the results for the pIC50 in assay [1] and in assay [2] were more than 8.00 and more than 6.30, respectively.
With `Cc1cc(-c2cc(Nc3cc4n(n3)CCCN(CCO)C4)ncn2)ccc1CNC(=O)c1cnn(C(C)(C)C)c1` [Example I-235, 1-(tert-butyl)-N-(4-(6-((5-(2-hydroxyethyl)-5,6,7,8-tetrahydro-4H-pyrazolo[1,5-a][1,4]diazepin-2-yl)amino)pyrimidin-4-yl)-2-methylbenzyl)-1H-pyrazole-4-carboxamide], the pIC50 in assay [1] was more than 8.00; in assay [2], more than 6.30.
As for `CC(C)(C)OC1CN(C(=O)N[C@@H]2CCCCc3cc(-c4ccnc(Nc5cnn(CCO)c5)n4)ccc32)C1` [Example I-229, (R)-3-(tert-butoxy)-N-(2-(2-((1-(2-hydroxyethyl)-1H-pyrazol-4-yl)amino)-pyrimidin-4-yl)-6,7,8,9-tetrahydro-5H-benzo[7]annulen-5-yl)azetidine-1-carboxamide], the pIC50 in assay [1] is more than 8.00; in assay [2], more than 6.30.
In the case of `Cc1cc(-c2cc(Nc3cc4n(n3)CCNC4)ncn2)ccc1CNC(=O)c1cnn(C(C)(C)C)c1` [Example I-231, 1-(tert-butyl)-N-(2-methyl-4-(6-((4,5,6,7-tetrahydropyrazolo[1,5-a]pyrazin-2-yl)amino)-pyrimidin-4-yl)benzyl)-1H-pyrazole-4-carboxamide], the pIC50 was more than 8.00 in assay [1] and more than 6.30 in assay [2].
For the compound `CC(C)OC1CN(C(=O)NC2CCN(CC(F)(F)F)Cc3cc(-c4ccnc(Nc5cnn(C)c5)n4)ccc32)C1` (stereo not drawn) [Example I-187, 3-isopropoxy-N-(8-(2-((1-methyl-1H-pyrazol-4-yl)amino)pyrimidin-4-yl)-2-(2,2,2-trifluoroethyl)-2,3,4,5-tetrahydro-1H-benzo[c]azepin-5-yl)azetidine-1-carboxamide], the pIC50 in assay [1] is more than 8.00; in assay [2], more than 6.30.
The like results for `Cc1cc(-c2ccnc(Nc3cnn(C4CCOCC4)c3)n2)ccc1CNC(=O)c1cnc(C(C)(C)C)s1` [Example I-38, 2-(tert-butyl)-N-(2-methyl-4-(2-((1-(tetrahydro-2H-pyran-4-yl)-1H-pyrazol-4-yl)amino)pyrimidin-4-yl)benzyl)thiazole-5-carboxamide] were, in that order, more than 8.00 and 5.82 to 6.30.
Turning to `Cc1cc(-c2ccnc(Nc3cn(C)nc3C)n2)ccc1CNC(=O)c1cnc(C(C)(C)C)s1` [Example I-51, 2-(tert-butyl)-N-(4-(2-((1,3-dimethyl-1H-pyrazol-4-yl)amino)pyrimidin-4-yl)-2-methylbenzyl)thiazole-5-carboxamide], the figures for the pIC50 in assay [1] and in assay [2] were more than 8.00 and 5.82 to 6.30, respectively.
With `Cc1cc(-c2cc(Nc3cc4n(n3)CC(C)N(C)C4)ncn2)ccc1CNC(=O)c1cnc(C(C)(C)C)s1` (stereo not drawn) [Example I-279, 2-tert-butyl-N-[[4-[6-[(5,6-dimethyl-6,7-dihydro-4H-pyrazolo[1,5-a]pyrazin-2-yl)amino]pyrimidin-4-yl]-2-methyl-phenyl]methyl]thiazole-5-carboxamide], the pIC50 in assay [1] is more than 8.00; in assay [2], more than 6.30.
The like results for `COCCn1cc(Nc2nccc(-c3ccc4c(c3)CCCCC4NC(=O)N3CC(OC(C)C)C3)n2)cn1` (stereo not drawn) [Example I-171, 3-isopropoxy-N-(2-(2-((1-(2-methoxyethyl)-1H-pyrazol-4-yl)amino)pyrimidin-4-yl)-6,7,8,9-tetrahydro-5H-benzo[7]annulen-5-yl)azetidine-1-carboxamide] were, in that order, more than 8.00 and more than 6.30.
